Laboratory results: ChEMBL document CHEMBL5149992, “Discovery, Optimization, and Evaluation of Quinazolinone Derivatives with Novel Linkers as Orally Efficacious Phosphoinositide-3-Kinase Delta Inhibitors for Treatment of Inflammatory Diseases” (J Med Chem, 2021)

Legend:
[1] = target: T1, Phosphatidylinositol 4,5-bisphosphate 3-kinase catalytic subunit alpha isoform (Homo sapiens, UniProt P42336); assay: Inhibition of PI3Kalpha (unknown origin) at 0.1 uM relative to control
[2] = target: T2, Phosphatidylinositol 4,5-bisphosphate 3-kinase catalytic subunit beta isoform (Homo sapiens, UniProt P42338); assay: Inhibition of PI3Kbeta (unknown origin) at 0.1 uM relative to control
Target sequence in this assay (P42338 whole entry, looked up, canonical isoform): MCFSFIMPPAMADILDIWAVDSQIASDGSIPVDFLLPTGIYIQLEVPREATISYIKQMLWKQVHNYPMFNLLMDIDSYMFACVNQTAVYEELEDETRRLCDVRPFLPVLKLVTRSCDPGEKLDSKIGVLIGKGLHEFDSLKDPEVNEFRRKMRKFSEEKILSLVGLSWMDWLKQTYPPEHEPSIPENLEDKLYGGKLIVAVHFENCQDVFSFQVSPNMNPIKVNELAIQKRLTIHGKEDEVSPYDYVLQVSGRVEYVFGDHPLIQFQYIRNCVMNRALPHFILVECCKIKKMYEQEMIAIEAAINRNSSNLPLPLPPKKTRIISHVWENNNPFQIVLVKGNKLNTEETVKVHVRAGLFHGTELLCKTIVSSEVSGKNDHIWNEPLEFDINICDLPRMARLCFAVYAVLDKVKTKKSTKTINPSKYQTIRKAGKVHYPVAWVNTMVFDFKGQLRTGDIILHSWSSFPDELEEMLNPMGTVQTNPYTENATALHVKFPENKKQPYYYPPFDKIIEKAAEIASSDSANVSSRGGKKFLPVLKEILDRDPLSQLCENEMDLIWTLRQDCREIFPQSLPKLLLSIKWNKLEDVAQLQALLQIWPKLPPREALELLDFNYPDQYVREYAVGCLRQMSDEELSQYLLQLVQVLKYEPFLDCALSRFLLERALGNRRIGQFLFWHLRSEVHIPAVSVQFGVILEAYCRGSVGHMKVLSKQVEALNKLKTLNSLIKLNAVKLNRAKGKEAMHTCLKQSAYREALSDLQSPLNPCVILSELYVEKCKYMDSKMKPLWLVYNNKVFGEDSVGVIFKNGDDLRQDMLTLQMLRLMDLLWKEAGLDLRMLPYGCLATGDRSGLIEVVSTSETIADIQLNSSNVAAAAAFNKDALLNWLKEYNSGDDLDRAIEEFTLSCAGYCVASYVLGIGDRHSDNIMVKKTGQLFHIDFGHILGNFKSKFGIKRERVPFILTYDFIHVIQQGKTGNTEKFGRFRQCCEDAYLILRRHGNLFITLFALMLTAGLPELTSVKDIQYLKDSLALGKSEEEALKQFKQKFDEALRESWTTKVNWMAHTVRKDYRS

[3] = target: T3, Phosphatidylinositol 4,5-bisphosphate 3-kinase catalytic subunit delta isoform (Homo sapiens, UniProt O00329); assay: Inhibition of PI3Kdelta (unknown origin)
T3 sequence (O00329 whole entry): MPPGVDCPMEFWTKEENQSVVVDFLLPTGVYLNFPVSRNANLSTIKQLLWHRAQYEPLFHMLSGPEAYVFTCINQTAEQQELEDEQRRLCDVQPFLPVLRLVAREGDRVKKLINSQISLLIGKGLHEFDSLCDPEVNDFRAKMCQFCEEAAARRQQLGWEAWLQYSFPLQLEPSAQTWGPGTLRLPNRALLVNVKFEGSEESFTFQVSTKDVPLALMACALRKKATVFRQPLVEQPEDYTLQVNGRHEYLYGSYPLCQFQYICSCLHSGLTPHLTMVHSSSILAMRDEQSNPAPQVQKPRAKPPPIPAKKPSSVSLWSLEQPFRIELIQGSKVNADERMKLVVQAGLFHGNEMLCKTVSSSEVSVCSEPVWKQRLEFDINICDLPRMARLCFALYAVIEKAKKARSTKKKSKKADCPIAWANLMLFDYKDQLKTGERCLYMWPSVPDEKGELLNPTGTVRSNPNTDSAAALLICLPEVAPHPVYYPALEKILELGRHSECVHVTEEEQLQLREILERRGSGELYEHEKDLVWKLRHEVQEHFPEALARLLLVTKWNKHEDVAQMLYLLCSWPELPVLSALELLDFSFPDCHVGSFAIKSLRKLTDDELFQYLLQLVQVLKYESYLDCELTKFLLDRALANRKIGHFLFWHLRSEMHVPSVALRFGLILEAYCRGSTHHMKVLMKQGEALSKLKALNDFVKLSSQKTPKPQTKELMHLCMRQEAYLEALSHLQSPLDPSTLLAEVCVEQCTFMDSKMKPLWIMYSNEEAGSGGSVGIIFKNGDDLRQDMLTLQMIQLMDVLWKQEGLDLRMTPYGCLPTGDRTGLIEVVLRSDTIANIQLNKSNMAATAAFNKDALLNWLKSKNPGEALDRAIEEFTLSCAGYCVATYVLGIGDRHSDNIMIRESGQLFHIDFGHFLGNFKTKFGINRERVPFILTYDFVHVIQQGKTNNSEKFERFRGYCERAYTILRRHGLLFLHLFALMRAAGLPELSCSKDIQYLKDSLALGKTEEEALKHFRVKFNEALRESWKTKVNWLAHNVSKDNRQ

[4] = target: T4, Phosphatidylinositol 4,5-bisphosphate 3-kinase catalytic subunit gamma isoform (Homo sapiens, UniProt P48736); assay: Inhibition of PI3Kgamma (unknown origin)
Target sequence in this assay (P48736 whole entry, canonical isoform): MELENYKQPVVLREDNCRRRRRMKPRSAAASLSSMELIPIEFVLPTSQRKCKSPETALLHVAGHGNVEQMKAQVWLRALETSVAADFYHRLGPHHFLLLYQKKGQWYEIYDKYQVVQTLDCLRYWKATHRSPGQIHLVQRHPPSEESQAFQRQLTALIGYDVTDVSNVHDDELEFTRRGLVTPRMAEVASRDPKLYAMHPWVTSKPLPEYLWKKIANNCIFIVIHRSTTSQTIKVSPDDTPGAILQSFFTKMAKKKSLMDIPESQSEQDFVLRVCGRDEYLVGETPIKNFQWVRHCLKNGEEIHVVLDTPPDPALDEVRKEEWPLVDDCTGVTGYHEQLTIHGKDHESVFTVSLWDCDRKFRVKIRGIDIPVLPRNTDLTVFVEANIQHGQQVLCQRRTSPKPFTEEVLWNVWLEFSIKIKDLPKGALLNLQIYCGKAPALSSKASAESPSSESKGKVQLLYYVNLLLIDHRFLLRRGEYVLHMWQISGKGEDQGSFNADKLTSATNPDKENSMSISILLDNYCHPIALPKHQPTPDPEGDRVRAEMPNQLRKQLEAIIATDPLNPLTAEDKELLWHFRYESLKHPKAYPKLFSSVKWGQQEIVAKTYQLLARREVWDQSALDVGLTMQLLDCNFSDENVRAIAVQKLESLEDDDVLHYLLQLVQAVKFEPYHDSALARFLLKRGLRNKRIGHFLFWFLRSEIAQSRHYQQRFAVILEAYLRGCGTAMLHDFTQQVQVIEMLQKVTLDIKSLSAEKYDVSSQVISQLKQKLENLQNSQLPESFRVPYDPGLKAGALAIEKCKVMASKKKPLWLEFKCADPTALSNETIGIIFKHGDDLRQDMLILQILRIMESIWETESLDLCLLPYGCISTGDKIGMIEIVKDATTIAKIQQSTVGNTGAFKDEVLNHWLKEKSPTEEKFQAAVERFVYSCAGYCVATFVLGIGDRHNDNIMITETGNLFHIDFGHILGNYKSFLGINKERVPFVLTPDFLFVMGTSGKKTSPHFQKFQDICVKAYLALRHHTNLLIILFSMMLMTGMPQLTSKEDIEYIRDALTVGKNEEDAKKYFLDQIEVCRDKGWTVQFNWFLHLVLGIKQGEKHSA

[5] = human, microsomes, 10 µM
in vitro = settings: human, liver microsomes
[6] = target: T5, Phosphatidylinositol 4,5-bisphosphate 3-kinase catalytic subunit delta isoform (Homo sapiens) (UniProt O00329); assay: Inhibition of PI3Kdelta (unknown origin) at 0.1 uM using phosphatidylinositol as substrate incubated for 30 mins in presence of ATP by HTRF based assay relative to control
T5 sequence (whole entry): T3 sequence (O00329 whole entry)

[7] = target: T5, Phosphatidylinositol 4,5-bisphosphate 3-kinase catalytic subunit delta isoform (Homo sapiens); assay: Inhibition of PI3Kdelta (unknown origin) at 0.01 uM using phosphatidylinositol as substrate incubated for 30 mins in presence of ATP by HTRF based assay relative to control
[8] = target: T4, Phosphatidylinositol 4,5-bisphosphate 3-kinase catalytic subunit gamma isoform; assay: Inhibition of PI3Kgamma (unknown origin) at 0.1 uM relative to control
Target sequence in this assay (P48736 whole entry, looked up, canonical isoform): as the sequence (P48736 whole entry, canonical isoform) above

[9] = target: T1, Phosphatidylinositol 4,5-bisphosphate 3-kinase catalytic subunit alpha isoform; assay: Inhibition of PI3Kalpha (unknown origin)
[10] = target: T2, Phosphatidylinositol 4,5-bisphosphate 3-kinase catalytic subunit beta isoform; assay: Inhibition of PI3Kbeta (unknown origin)
Target sequence in this assay (P42338 whole entry, canonical isoform): as the sequence (P42338 whole entry, looked up, canonical isoform) above

T1 sequence (P42336 whole entry, canonical isoform): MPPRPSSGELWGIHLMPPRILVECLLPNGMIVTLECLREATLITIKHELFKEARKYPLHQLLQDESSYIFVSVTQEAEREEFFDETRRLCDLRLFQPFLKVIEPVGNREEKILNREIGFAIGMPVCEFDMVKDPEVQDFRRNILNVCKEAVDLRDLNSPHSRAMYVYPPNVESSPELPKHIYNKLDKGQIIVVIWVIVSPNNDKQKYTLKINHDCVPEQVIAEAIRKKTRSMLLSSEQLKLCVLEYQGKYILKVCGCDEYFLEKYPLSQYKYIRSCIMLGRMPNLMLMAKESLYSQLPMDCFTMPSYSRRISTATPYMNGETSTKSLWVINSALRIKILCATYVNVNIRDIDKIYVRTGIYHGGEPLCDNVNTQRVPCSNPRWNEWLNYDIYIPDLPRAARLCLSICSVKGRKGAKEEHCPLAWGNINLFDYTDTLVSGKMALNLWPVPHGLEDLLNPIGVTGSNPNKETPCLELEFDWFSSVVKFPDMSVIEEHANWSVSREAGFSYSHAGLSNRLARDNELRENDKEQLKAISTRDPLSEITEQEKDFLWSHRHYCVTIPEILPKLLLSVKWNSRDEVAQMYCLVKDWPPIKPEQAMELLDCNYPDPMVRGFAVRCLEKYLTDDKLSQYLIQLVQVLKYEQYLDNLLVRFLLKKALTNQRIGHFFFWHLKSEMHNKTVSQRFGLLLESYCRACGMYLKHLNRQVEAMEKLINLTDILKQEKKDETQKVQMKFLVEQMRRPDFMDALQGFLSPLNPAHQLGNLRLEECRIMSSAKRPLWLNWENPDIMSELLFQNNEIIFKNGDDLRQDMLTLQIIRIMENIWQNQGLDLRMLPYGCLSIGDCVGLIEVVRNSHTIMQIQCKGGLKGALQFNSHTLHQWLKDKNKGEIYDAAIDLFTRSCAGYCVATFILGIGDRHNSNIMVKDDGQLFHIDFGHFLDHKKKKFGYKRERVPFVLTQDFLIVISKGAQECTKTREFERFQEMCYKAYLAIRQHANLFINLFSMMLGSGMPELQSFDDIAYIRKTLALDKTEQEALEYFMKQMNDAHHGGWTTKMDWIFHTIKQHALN

| Compound | IC50 [3] [nM] | CLH [5] [mL/min/g] | half-life at 60 h, 10 µM (in vitro) [h] | inhibition [6] [%] | inhibition [7] [%] | other results |
| --- | --- | --- | --- | --- | --- | --- |
| C[C@H]1CC[C@@H](c2nc3cccc(Cl)c3c(=O)n2-c2cccc(F)c2)N1c1nc(N)nc2[nH]cnc12 | 9 |  |  |  |  | inhibition [1]: 42%; inhibition [2]: 43%; IC50 [4]: 9 nM |
| C=CCO[C@@H]1C[C@@H](c2nc3cccc(Cl)c3c(=O)n2-c2ccccc2)N(c2ncnc3[nH]cnc23)C1 |  |  |  | 8 | 1 |  |
| Nc1nc(N2CC3(CC3)C[C@H]2c2nc3cccc(Cl)c3c(=O)n2-c2ccccc2)c2nc[nH]c2n1 |  |  |  | 44 | 8 |  |
| N#Cc1c(N)ncnc1N1[C@H](c2nc3cccc(Cl)c3c(=O)n2N2CCOCC2)C[C@@H]2CCCC[C@@H]21 | 14 | 11 | 2.1 |  |  | inhibition [1]: 24%; inhibition [8]: 5%; inhibition [2]: 43% |
| N#Cc1c(N)ncnc1N1[C@H](c2nc3cccc(Cl)c3c(=O)n2-c2cc(F)cc(F)c2)C[C@@H]2CCCC[C@@H]21 | 142 | < 12 | > 2 |  |  | IC50 [4]: > 1000 nM; IC50 [9]: > 1000 nM; IC50 [10]: > 1000 nM |
| Cc1ccnc(N2[C@H](c3nc4cccc(Cl)c4c(=O)n3-c3ccccc3)C[C@@H]3CCCC[C@@H]32)n1 |  |  |  | -1 | -1 |  |
| O=c1c2c(Cl)cccc2nc([C@@H]2C[C@@H]3CCCC[C@@H]3N2c2nccc(Cl)n2)n1-c1ccccc1 |  |  |  | -2 | -2 |  |
| O=c1c2c(Cl)cccc2nc([C@@H]2CC(F)(F)CN2c2ncnc3[nH]ccc23)n1-c1ccccc1 |  |  |  | 26 | 4 |  |
| O=c1c2c(Cl)cccc2nc([C@@H]2CC(F)(F)CN2c2ncnc3[nH]cnc23)n1-c1ccccc1 |  |  |  | 34 | 4 |  |
| C=CCO[C@@H]1C[C@@H](c2nc3cccc(Cl)c3c(=O)n2-c2ccccc2)N(c2nc(N)nc3[nH]cnc23)C1 |  |  |  | 42 | 7 |  |
| C=CCO[C@@H]1C[C@@H](c2nc3cccc(Cl)c3c(=O)n2-c2ccccc2)N(c2ncnc3[nH]ccc23)C1 |  |  |  | 7 | 2 |  |
| O=c1c2c(Cl)cccc2nc([C@@H]2CC3(CC3)CN2c2ncnc3[nH]cnc23)n1-c1ccccc1 |  |  |  | 32 | 3 |  |
| N#Cc1cccnc1N1[C@H](c2nc3cccc(Cl)c3c(=O)n2-c2ccccc2)C[C@@H]2CCCC[C@@H]21 |  |  |  | 0 | -1 |  |
| C=C1C[C@@H](c2nc3cccc(Cl)c3c(=O)n2-c2ccccc2)N(c2nc(N)nc3[nH]cnc23)C1 |  |  |  | 96 | 52 |  |
| O=c1c2c(Cl)cccc2nc([C@@H]2CC3(CC3)CN2c2ncnc3[nH]ccc23)n1-c1ccccc1 |  |  |  | 8 | 2 |  |
| Nc1ccnc(N2[C@H](c3nc4cccc(Cl)c4c(=O)n3-c3ccccc3)C[C@@H]3CCCC[C@@H]32)n1 |  |  |  | -3 | -1 |  |
| O=c1c2c(Cl)cccc2nc([C@@H]2C[C@@H]3CCCC[C@@H]3N2c2nc(Cl)nc3[nH]cnc23)n1-c1ccccc1 |  |  |  | 1 | -1 |  |
| Nc1nc(N2CCC[C@H]2c2nc3cccc(Cl)c3c(=O)n2-c2ccccc2)c2nc[nH]c2n1 |  | 21.8 | 1.06 |  |  |  |
| Nc1nc(N2[C@H](c3nc4cccc(Cl)c4c(=O)n3-c3ccccc3)C[C@@H]3CCCC[C@@H]32)c2nc[nH]c2n1 |  |  |  | 6 | 2 |  |
| C=C1C[C@@H](c2nc3cccc(Cl)c3c(=O)n2-c2ccccc2)N(c2ncnc3[nH]cnc23)C1 |  |  |  | 75 | 28 |  |
| N#Cc1c(N)ncnc1N1[C@H](c2nc3cccc(F)c3c(=O)n2-c2cc(F)cc(F)c2)C[C@@H]2CCCC[C@@H]21 | 305 | 2.4 | 9.62 |  |  | IC50 [4]: > 1000 nM; IC50 [9]: > 1000 nM; IC50 [10]: > 1000 nM |
| Nc1nc(N2CC(F)(F)C[C@H]2c2nc3cccc(Cl)c3c(=O)n2-c2ccccc2)c2nc[nH]c2n1 |  |  |  | 50 | 11 |  |
| C=C1C[C@@H](c2nc3cccc(Cl)c3c(=O)n2-c2ccccc2)N(c2ncnc3[nH]ccc23)C1 |  |  |  | 59 | 12 |  |

Further lines, with some results ahead:

| IC50 [3] [nM] | CLH [5] [mL/min/g] | half-life at 60 h, 10 µM (in vitro) [h] | inhibition [6] [%] | inhibition [7] [%] | Compound | other results |
| --- | --- | --- | --- | --- | --- | --- |
| 10 | 12.6 | 1.83 |  |  | C[C@H]1CC[C@@H](c2nc3cccc(Cl)c3c(=O)n2N2CCOCC2)N1c1ncnc(N)c1C#N | inhibition [1]: 5%; inhibition [2]: 45%; IC50 [4]: 295 nM |
| 50 | 5.4 | 4.28 |  |  | N#Cc1c(N)ncnc1N1[C@H](c2nc3cccc(Cl)c3c(=O)n2-c2cccnc2)C[C@@H]2CCCC[C@@H]21 | inhibition [1]: 17%; inhibition [8]: 3%; inhibition [2]: 17% |
| 25 | 3.8 | 6.08 |  |  | C[C@H]1CC[C@@H](c2nc3cccc(Cl)c3c(=O)n2-c2ccccc2)N1c1nc(N)nc2[nH]cnc12 | inhibition [1]: 22%; inhibition [2]: 69%; IC50 [4]: 38 nM |
|  |  |  | 8 | 0 | O=c1c2c(Cl)cccc2nc([C@@H]2C[C@@H]3CCCC[C@@H]3N2c2ncnc3[nH]cnc23)n1-c1ccccc1 |  |
| 5 | 22.6 | 1.02 |  |  | C[C@H]1CC[C@@H](c2nc3cccc(Cl)c3c(=O)n2-c2ccccc2)N1c1ncnc(N)c1C#N | IC50 [4]: 144 nM; IC50 [9]: > 1000 nM; IC50 [10]: 968 nM |
| 67 | 767 | 0.03 | 47 | 17 | C=CCO[C@@H]1C[C@@H](c2nc3cccc(Cl)c3c(=O)n2-c2ccccc2)N(c2ncnc(N)c2C#N)C1 |  |
| 30 |  |  |  |  | C[C@H]1CC[C@@H](c2nc3cccc(Cl)c3c(=O)n2-c2cccc(F)c2)N1c1ncnc2[nH]ccc12 | inhibition [1]: 19%; IC50 [4]: 74 nM |
| 3 | 10.4 | 2.22 |  |  | C[C@H]1CC[C@@H](c2nc3cccc(Cl)c3c(=O)n2-c2cccc(F)c2)N1c1ncnc(N)c1C#N | IC50 [4]: 199 nM; IC50 [9]: > 1000 nM; IC50 [10]: > 1000 nM |
|  |  |  | -3 | -3 | O=c1c2c(Cl)cccc2nc([C@@H]2C[C@@H]3CCCC[C@@H]3N2c2ncnc3[nH]ncc23)n1-c1ccccc1 |  |
| 34 | 10 | 2.31 |  |  | N#Cc1c(N)ncnc1N1[C@H](c2nc3cccc(Cl)c3c(=O)n2-c2cccc(F)c2)C[C@@H]2CCCC[C@@H]21 | inhibition [1]: 4%; inhibition [8]: 5%; inhibition [2]: 17% |
| 20 | 27.6 | 0.837 | 83 | 23 | N#Cc1c(N)ncnc1N1CC2(CC2)C[C@H]1c1nc2cccc(Cl)c2c(=O)n1-c1ccccc1 | IC50 [4]: 655 nM; IC50 [9]: > 1000 nM; IC50 [10]: > 1000 nM |
|  |  |  | 3 | 1 | O=c1c2c(Cl)cccc2nc([C@@H]2C[C@@H]3CCCC[C@@H]3N2c2ncnc3[nH]ccc23)n1-c1ccccc1 |  |
| 3 | 103.8 | 0.223 | 102 | 79 | C=C1C[C@@H](c2nc3cccc(Cl)c3c(=O)n2-c2ccccc2)N(c2ncnc(N)c2C#N)C1 | IC50 [4]: 250 nM; IC50 [9]: > 1000 nM; IC50 [10]: 819 nM |
| 4 | 13.4 | 1.72 |  |  | C[C@H]1CC[C@@H](c2nc3cccc(Cl)c3c(=O)n2-c2cccnc2)N1c1ncnc(N)c1C#N | inhibition [1]: 18%; inhibition [2]: 45%; IC50 [4]: 351 nM |
